Paper PMC12186255, “Discovery and Characterization of Small Molecule Inhibitors Targeting Exonuclease 1 for Homologous Recombination-Deficient Cancer Therapy” (ACS Chemical Biology, 2025)

What was measured:
[1] = system: MDA-MB-231 cells; assay: Gel-based phospho-RPA end resection assay; format: cell-based, human; conditions: inhibitor overnight then 2 μM CPT 2 h, C5 10 μM
Procedure: The levels of RPA32 and phosphorylated RPA32 (S33) were analyzed by Western blotting using antibodies against RPA32 and phosphorylated RPA32 (S33). The total level of tubulin was used as a control. (b) Ratio of P-RPA:RPA levels calculated from panel a. […] U2OS cells carrying a GFP reporter for HR were infected with adenovirus expressing the I-SceI restriction enzyme. […] U2OS cells carrying a GFP reporter for HR were infected with adenovirus expressing the I-SceI restriction enzyme. […] For panels c and d, after 48 h, the cells were harvested, and the GFP-positive cells were analyzed by flow cytometry. Values are the mean ± S.D. of three independent experiments.
The treated cells were then lysed in the SDS-PAGE sample buffer, and the lysate was separated by SDS-PAGE prior to immobilization on a nitrocellulose membrane and Western blotting. Antibodies against unphosphorylated RPA, S33-P-RPA2, and tubulin were subsequently assayed according to the manufacturer’s recommendations. The ratio of P-RPA/RPA levels were quantified via ImageJ.

[2] = target: T1, EXO1 (Homo sapiens, UniProt Q9UQ84); assay: FRET-based EXO1 exonuclease activity assay, dose-response; format: biochemical; conditions: nick substrate, 30 min, 37 °C
T1 construct: made in house
T1 sequence (Q9UQ84 1-846): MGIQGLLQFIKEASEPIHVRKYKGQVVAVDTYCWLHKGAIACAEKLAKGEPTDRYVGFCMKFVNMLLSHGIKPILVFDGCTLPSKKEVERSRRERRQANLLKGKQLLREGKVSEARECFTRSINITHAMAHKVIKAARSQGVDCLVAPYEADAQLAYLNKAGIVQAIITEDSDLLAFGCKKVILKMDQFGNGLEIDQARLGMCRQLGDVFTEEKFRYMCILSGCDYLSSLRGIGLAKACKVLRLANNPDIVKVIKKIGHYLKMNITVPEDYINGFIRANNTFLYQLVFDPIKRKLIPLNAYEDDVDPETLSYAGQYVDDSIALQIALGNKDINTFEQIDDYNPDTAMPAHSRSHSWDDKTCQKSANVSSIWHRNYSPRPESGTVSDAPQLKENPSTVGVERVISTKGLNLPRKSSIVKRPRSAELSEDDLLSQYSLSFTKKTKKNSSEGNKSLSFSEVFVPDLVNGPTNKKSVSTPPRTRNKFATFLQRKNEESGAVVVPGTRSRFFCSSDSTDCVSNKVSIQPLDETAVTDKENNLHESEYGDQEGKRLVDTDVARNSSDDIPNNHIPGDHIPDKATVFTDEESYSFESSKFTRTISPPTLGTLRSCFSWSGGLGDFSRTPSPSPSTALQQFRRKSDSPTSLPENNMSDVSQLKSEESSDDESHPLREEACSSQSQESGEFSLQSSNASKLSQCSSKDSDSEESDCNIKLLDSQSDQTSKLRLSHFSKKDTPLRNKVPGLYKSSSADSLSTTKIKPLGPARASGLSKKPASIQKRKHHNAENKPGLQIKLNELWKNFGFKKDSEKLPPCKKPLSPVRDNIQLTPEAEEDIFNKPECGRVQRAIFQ
Text: We developed a cell-free in vitro assay to detect EXO1 exonuclease activity based on FRET quenching. […] A ZEN quencher and IowaBlackFQ quencher were attached to the downstream oligo internally and at the 3' end, respectively, to suppress FAM signal. Two quenchers were used to provide better quenching effects than did a single quencher, as recommended by the manufacturer (IDT). The sequence of the nick substrate was as follows: up-primer: [NT]; template: [NT]; and probe: […] . When EXO1 cleaved the nick substrate, the FAM-labeled nucleotide was untethered from the substrate and yielded a bright green fluorescence. […] Fluorescent signals were measured after a 30 min incubation. […] Data were normalized by subtracting the relative fluorescence unit (RFU) of the blank sample from that of each EXO1-containing reaction. The relative activity of individual compounds was subsequently calculated by setting the corrected RFU of EXO1 with DMSO as 100% and comparing the corrected RFU for each condition to the DMSO value. Each assay was performed by sequentially adding experimental compounds, the EXO1 enzyme, and the DNA substrate to minimize starting differences.

[3] = target: T2, FEN1 (Homo sapiens, UniProt P39748); assay: Analogous FRET-based counter screen with purified FEN1; format: biochemical; conditions: FRET-based assay, maximum inhibitor concentration 100 μM
T2 construct: made in house
T2 sequence (P39748 whole entry): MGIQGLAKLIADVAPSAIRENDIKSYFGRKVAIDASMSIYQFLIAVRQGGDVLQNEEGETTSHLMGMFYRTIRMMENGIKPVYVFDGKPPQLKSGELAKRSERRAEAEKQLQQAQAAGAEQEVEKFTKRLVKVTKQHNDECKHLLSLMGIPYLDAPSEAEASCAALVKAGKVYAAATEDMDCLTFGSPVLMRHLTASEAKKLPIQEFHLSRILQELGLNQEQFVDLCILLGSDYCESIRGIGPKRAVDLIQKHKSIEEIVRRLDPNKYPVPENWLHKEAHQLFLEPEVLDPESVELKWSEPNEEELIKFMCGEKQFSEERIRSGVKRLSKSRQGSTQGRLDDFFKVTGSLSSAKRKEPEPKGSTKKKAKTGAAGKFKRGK
Procedure: Data were normalized by subtracting the relative fluorescence unit (RFU) of the blank sample from that of each EXO1-containing reaction. The relative activity of individual compounds was subsequently calculated by setting the corrected RFU of EXO1 with DMSO as 100% and comparing the corrected RFU for each condition to the DMSO value. Each assay was performed by sequentially adding experimental compounds, the EXO1 enzyme, and the DNA substrate to minimize starting differences. […] Following IC50 screening, an analogous FRET-based assay was performed using purified FEN1 to assess the EXO1 specificity of each compound.
For subsequent hit confirmation, 84 compounds from the primary screen were picked from our internal stock and subjected to a dose-dependent response assay starting at 100 μM with 3-fold serial dilution. To analyze the data from the dose-dependent response assay, IC50 values for each hit were calculated through nonlinear regression analysis using GraphPad Prism 10 (GraphPad Software, Inc.). […] Subsequently, a counter screen was performed to eliminate potential false-positive hits. To accomplish this, we established an analogous FRET assay using the purified FEN1 enzyme in place of EXO1.

[4] = system: MDA-MB-468; assay: Cell line drug profiling, CellTiter Glo; format: cell-based, human
Procedure: (§1) We tested the cytotoxicity of representative compounds from the seven EXO1i scaffolds against a subset of the NCI-60 cell line panel along with three additional pancreatic cell lines (FG, AsPC1, and CaPan2). In general, cells were seeded in 384-well tissue culture-treated plates overnight and treated with various concentrations of each hit compound (a serial 3-fold dilution from 50 μM for all tested hits). Each concentration was performed in duplicate. Cell viability was then measured by CellTiter Glo (Promega) after 72 h of treatment.

[5] = system: SF-295; assay: Cell line drug profiling, CellTiter Glo; format: cell-based, human
Procedure: as §1

[6] = system: PC3; assay: Cell line drug profiling, CellTiter Glo; format: cell-based; conditions: Homo sapiens, PC-3; PC3, Prostate, 72 h
Procedure: as §1

[7] = system: HL-60(TB); assay: Cell line drug profiling, CellTiter Glo; format: cell-based; conditions: Homo sapiens, Leukemia, 72 h
Procedure: as §1

[8] = system: MCF7; assay: Cell line drug profiling, CellTiter Glo; format: cell-based; conditions: Homo sapiens; MCF7, Breast, 72 h
Procedure: as §1

[9] = system: U251; assay: Cell line drug profiling, CellTiter Glo; format: cell-based; conditions: Homo sapiens, U-251; U251, Central Nervous System, 72 h
Procedure: as §1

[10] = system: HS 578T; assay: Cell line drug profiling, CellTiter Glo; format: cell-based; conditions: Homo sapiens, Breast, 72 h
Procedure: as §1

[11] = system: OVCAR-5; assay: Cell line drug profiling, CellTiter Glo; format: cell-based; conditions: Homo sapiens; OVCAR-5, Ovarian, 72 h
Procedure: as §1

[12] = system: SF-268; assay: Cell line drug profiling, CellTiter Glo; format: cell-based; conditions: Homo sapiens; SF-268, Central Nervous System, 72 h
Procedure: as §1

[13] = system: FG; assay: Cell line drug profiling, CellTiter Glo; format: cell-based; conditions: Homo sapiens, Pancreatic, 72 h
Procedure: as §1

[14] = system: CaPan2; assay: Cell line drug profiling, CellTiter Glo; format: cell-based; conditions: Homo sapiens, Capan-2; CaPan2, Pancreatic, 72 h
Procedure: as §1

[15] = system: AsPC1; assay: Cell line drug profiling, CellTiter Glo; format: cell-based; conditions: Homo sapiens; AsPC1, Pancreatic, 72 h
Procedure: as §1

[16] = system: SKOV-3; assay: Cell line drug profiling, CellTiter Glo; format: cell-based; conditions: Homo sapiens, SK-OV-3; SKOV-3, Ovarian, 72 h
Procedure: as §1

[17] = system: NCI/ADR-RES; assay: Cell line drug profiling, CellTiter Glo; format: cell-based; conditions: Homo sapiens, Ovarian, 72 h
Procedure: as §1

[18] = system: H23; assay: Cell line drug profiling, CellTiter Glo; format: cell-based; conditions: Homo sapiens, NCI-H23; H23, Lung, 72 h
Procedure: as §1

[19] = system: UO-31; assay: Cell line drug profiling, CellTiter Glo; format: cell-based; conditions: Homo sapiens; UO-31, Kidney, 72 h
Procedure: as §1

[20] = system: MCF7 (B3); assay: Cell line drug profiling, CellTiter Glo; format: cell-based; conditions: Homo sapiens, Breast, 72 h
Procedure: as §1

[21] = system: DU145 (B3); assay: Cell line drug profiling, CellTiter Glo; format: cell-based; conditions: Homo sapiens, DU-145, Prostate, 72 h
Procedure: as §1

[22] = system: SNB-19; assay: Cell line drug profiling, CellTiter Glo; format: cell-based; conditions: Homo sapiens; SNB-19, Central Nervous System, 72 h
Procedure: as §1

[23] = system: UACC-257; assay: Cell line drug profiling, CellTiter Glo; format: cell-based; conditions: Homo sapiens; UACC-257, Melanoma, 72 h
Procedure: as §1

[24] = system: OVCAR-4; assay: Cell line drug profiling, CellTiter Glo; format: cell-based; conditions: Homo sapiens; OVCAR-4, Ovarian, 72 h
Procedure: as §1

[25] = system: OVCAR-8; assay: Cell line drug profiling, CellTiter Glo; format: cell-based; conditions: Homo sapiens; OVCAR-8, Ovarian, 72 h
Procedure: as §1

[26] = system: CCRF-CEM; assay: Cell line drug profiling, CellTiter Glo; format: cell-based; conditions: Homo sapiens, Leukemia, 72 h
Procedure: as §1

[27] = system: ACHN; assay: Cell line drug profiling, CellTiter Glo; format: cell-based; conditions: Homo sapiens, Kidney, 72 h
Procedure: as §1

[28] = system: IGR-OV1; assay: Cell line drug profiling, CellTiter Glo; format: cell-based; conditions: Homo sapiens, IGROV-1; IGR-OV1, Ovarian, 72 h
Procedure: as §1

[29] = system: SK-MEL-28; assay: Cell line drug profiling, CellTiter Glo; format: cell-based; conditions: Homo sapiens; SK-MEL-28, Melanoma, 72 h
Procedure: as §1

[30] = system: MDA-MB-231; assay: Cell line drug profiling, CellTiter Glo; format: cell-based; conditions: Homo sapiens; MDA-MB-231, Breast, 72 h
Procedure: as §1

[31] = system: OVCAR-3; assay: Cell line drug profiling, CellTiter Glo; format: cell-based; conditions: Homo sapiens; OVCAR-3, Ovarian, 72 h
Procedure: as §1

[32] = system: DU145; assay: Cell line drug profiling, CellTiter Glo; format: cell-based; conditions: Homo sapiens, DU-145; DU145, Prostate, 72 h
Procedure: as §1

[33] = system: BT549; assay: Cell line drug profiling, CellTiter Glo; format: cell-based; conditions: Homo sapiens, BT-549; BT549, Breast, 72 h
Procedure: as §1

[34] = system: T-47D; assay: Cell line drug profiling, CellTiter Glo; format: cell-based; conditions: Homo sapiens, T47D, Breast, 72 h
Procedure: as §1

[35] = target: T1, EXO1; assay: Thermal shift assay; format: binding; conditions: maximum shift in Tm of EXO1 vs DMSO, increasing inhibitor concentrations
Procedure: To assess for changes in the thermal stability of EXO1 protein in response to treatment with candidate small molecule inhibitors or DMSO (vehicle control), the thermal shift assay (Applied Biosystems Protein Thermal Shift Dye Kit, Cat. #4461146) was utilized. The protein melt reaction mix consisted of freshly prepared 10× thermal shift dye, purified EXO1 enzyme (1 μg/uL), thermal shift buffer, DMSO or inhibitors, and sterilized Milli-Q water. A drug-free supermix was premade and dispensed in 96-well PCR plates followed by the addition of DMSO or inhibitors with increasing concentration. The reaction plate was heated from 10 to 98 °C at a rate of 0.5° per 10 s cycle, and the fluorescence intensity of individual wells was measured at 490/530 nm using a BioRad CFX96 Touch Real-Time PCR System. The fluorescence measurements of three technical replicates per treatment condition were then averaged to calculate melting temperature shift (ΔT m) as a readout for compound binding affinity.

Compound: O=C(O)c1c[nH]c2c([N+](=O)[O-])cccc2c1=O [C5, reference compound]
- CPT-induced P-RPA levels (DNA end resection) [1]: significant reduction

Compound: Cc1c(Cl)cccc1NCc1cc(=O)n2nc(-c3ccc(C(C)(C)C)cc3)nc2[nH]1 [D351]
- IC50 [2]: 8 µM
- IC50 [3]: > 100 µM

Compound: O=S(=O)(Nc1nc2n(n1)C(c1ccc(F)cc1)C=C(c1ccccc1)N2)c1ccc(Cl)cc1 (stereo not shown) [D413-0213]
- IC50 ([4]; MDA-MB-468, Breast, 72 h): 20 µM
- IC50 ([5]; SF-295, Central Nervous System, 72 h): 40 µM

Compound: O=S(=O)(Nc1nc2n(n1)C(c1ccccc1)C=C(c1ccc(Cl)cc1)N2)c1ccc(Cl)cc1 (stereo not shown) [D413]
- IC50 [3]: > 100 µM

Compound: O=C(Nc1ccc(N2CCC(Cc3ccccc3)CC2)cc1C(=O)O)c1ccccc1Cl [F685]
- IC50 ([4]; Homo sapiens, MDA-MB-468, 72 h): 46.4 µM
- IC50 ([5]; Homo sapiens, SF-295, 72 h): 28.2 µM
- IC50 [6]: 19.7 µM
- IC50 [7]: 17.5 µM
- IC50 [8]: 43.5 µM
- IC50 [9]: 14.2 µM
- IC50 [10]: 22.9 µM
- IC50 [11]: 19.4 µM
- IC50 [12]: 49.3 µM
- IC50 [13]: > 50 µM
- IC50 [14]: 44.7 µM
- IC50 [15]: 43.3 µM
- IC50 [16]: 24.4 µM
- IC50 [17]: 17.7 µM
- IC50 [18]: 23.5 µM
- IC50 [19]: 8.27 µM
- IC50 [20]: 37.3 µM
- IC50 [21]: 14.1 µM
- IC50 [22]: 16.6 µM
- IC50 [23]: 21.5 µM
- IC50 [24]: 21.4 µM
- IC50 [25]: 18.8 µM
- IC50 [26]: 14.8 µM
- IC50 [27]: 19.9 µM
- IC50 [28]: 18.1 µM
- IC50 [29]: 47.1 µM
- IC50 [30]: 31.6 µM
- IC50 [31]: 5.73 µM
- IC50 [32]: 12.6 µM
- IC50 [33]: 17.9 µM
- IC50 [34]: 16.9 µM
- IC50 [3]: > 100 µM

Compound: Cc1ccccc1C(=O)Nc1ccc(N2CCN(c3ccccc3Cl)CC2)c(C(=O)O)c1 [G889]
- ΔT m [35]: ~1 °C
- IC50 [3]: > 100 µM
